Assay results from ChEMBL document CHEMBL3232804, “Synthesis and evaluation of new diaryl ether and quinoline hybrids as potential antiplasmodial and antimicrobial agents” (Bioorg Med Chem Lett, 2014).
≈ marks a conversion by molar mass, not a printed value.

Key:
[1] = tested on: Aspergillus fumigatus; test: Antifungal activity against Aspergillus fumigatus clinical isolate after 72 to 96 hrs by standard broth microdilution method; type: functional
[2] = tested on: Plasmodium falciparum; test: Antiplasmodial activity against chloroquine-resistant Plasmodium falciparum K1 infected after 72 hrs by Malaria SYBR Green I-staining based fluorescence assay; type: functional, organism-based; conditions: K1, 72 h
[3] = tested on: Pseudomonas aeruginosa; test: Antimicrobial activity against Pseudomonas aeruginosa ATCC BAA-427 after 24 hrs by standard broth microdilution method; type: functional; conditions: ATCC BAA-427, 24 h
[4] = tested on: Plasmodium falciparum; test: Antiplasmodial activity against chloroquine-sensitive Plasmodium falciparum 3D7 infected after 72 hrs by Malaria SYBR Green I-staining based fluorescence assay; type: functional, organism-based; conditions: 3D7, 72 h
[5] = tested on: Klebsiella pneumoniae; test: Antimicrobial activity against Klebsiella pneumoniae ATCC 27736 after 24 hrs by standard broth microdilution method; type: functional; conditions: ATCC 27736, 24 h
[6] = tested on: Cryptococcus neoformans; test: Antifungal activity against Cryptococcus neoformans clinical isolate after 24 to 48 hrs by standard broth microdilution method; type: functional
[7] = tested on: Candida albicans; test: Antifungal activity against Candida albicans clinical isolate after 24 to 48 hrs by standard broth microdilution method; type: functional
[8] = tested on: Candida parapsilosis; test: Antifungal activity against Candida parapsilosis ATCC […] after 72 to 96 hrs by standard broth microdilution method; type: functional; conditions: Lodderomyces parapsilosis
[9] = tested on: Sporothrix schenckii; test: Antifungal activity against Sporothrix schenckii clinical isolate after 72 to 96 hrs by standard broth microdilution method; type: functional
[10] = Selectivity index, ratio of IC50 for african green monkey Vero cells to IC50 for chloroquine-sensitive Plasmodium falciparum 3D7; type: toxicity, cell-based; conditions: read-out: Ratio IC50
[11] = tested on: Escherichia coli; test: Antimicrobial activity against Escherichia coli ATCC 9637 after 24 hrs by standard broth microdilution method; type: functional; conditions: ATCC 9637, 24 h
[12] = tested on: Staphylococcus aureus; test: Antimicrobial activity against Staphylococcus aureus ATCC 25923 after 24 hrs by standard broth microdilution method; type: functional; conditions: ATCC 25923, 24 h
[13] = tested on: Trichophyton mentagrophytes; test: Antifungal activity against Trichophyton mentagrophytes clinical isolate after 72 to 96 hrs by standard broth microdilution method; type: functional

Clc1ccc(/N=C(\NCCCCNc2ccnc3cc(Cl)ccc23)Nc2ccccc2Oc2cc(Cl)ccc2Cl)cc1
MIC [1]: > 50 µg/mL
IC50 [2]: 151 nM
MIC [3]: > 50 µg/mL
IC50 [4]: 654 nM
MIC [5]: > 50 µg/mL
MIC [6]: > 50 µg/mL
MIC [7]: > 50 µg/mL
MIC [8]: > 50 µg/mL
MIC [9]: > 50 µg/mL
selectivity ratio [10]: 11
MIC [11]: > 50 µg/mL
MIC [12]: > 50 µg/mL
MIC [13]: > 50 µg/mL

COC(=O)/C(C)=C/c1ccc(Oc2ccc(N/C(=N/c3cccc(Cl)c3)NCCCNc3ccnc4cc(Cl)ccc34)cc2)cc1
MIC [1]: > 50 µg/mL
IC50 [2]: 71.4 nM
MIC [3]: > 50 µg/mL
IC50 [4]: 78.2 nM
MIC [5]: 50 µg/mL (≈ 76.4 µM)
MIC [6]: > 50 µg/mL
MIC [7]: > 50 µg/mL
MIC [8]: 50 µg/mL (≈ 76.4 µM)
MIC [9]: 50 µg/mL (≈ 76.4 µM)
selectivity ratio [10]: 21.9
MIC [11]: 6.25 µg/mL (≈ 9.55 µM)
MIC [12]: 6.25 µg/mL (≈ 9.55 µM)
MIC [13]: 50 µg/mL (≈ 76.4 µM)

COC(=O)/C(C)=C/c1ccc(Oc2ccccc2N/C(=N/c2cccc(Cl)c2)NCCCNc2ccnc3cc(Cl)ccc23)cc1
MIC [1]: > 50 µg/mL
IC50 [2]: 292 nM
MIC [3]: > 50 µg/mL
IC50 [4]: 20.3 nM
MIC [5]: 3.12 µg/mL (≈ 4.77 µM)
MIC [6]: > 50 µg/mL
MIC [7]: 50 µg/mL (≈ 76.4 µM)
MIC [8]: > 50 µg/mL
MIC [9]: 50 µg/mL (≈ 76.4 µM)
selectivity ratio [10]: 368
MIC [11]: 6.25 µg/mL (≈ 9.55 µM)
MIC [12]: 3.12 µg/mL (≈ 4.77 µM)
MIC [13]: 50 µg/mL (≈ 76.4 µM)

COC(=O)/C(C)=C/c1ccc(Oc2ccccc2N/C(=N/c2ccccc2)NCCCNc2ccnc3cc(Cl)ccc23)cc1
MIC [1]: > 50 µg/mL
IC50 [2]: 161 nM
MIC [3]: > 50 µg/mL
IC50 [4]: 174 nM
MIC [5]: > 50 µg/mL
MIC [6]: > 50 µg/mL
MIC [7]: > 50 µg/mL
MIC [8]: > 50 µg/mL
MIC [9]: > 50 µg/mL
selectivity ratio [10]: 37.2
MIC [11]: > 50 µg/mL
MIC [12]: > 50 µg/mL
MIC [13]: > 50 µg/mL

Clc1ccc(Cl)c(Oc2ccc(N/C(=N/c3ccccc3)NCCCCNc3ccnc4cc(Cl)ccc34)cc2)c1
MIC [1]: 25 µg/mL (≈ 41.3 µM)
IC50 [2]: > 826 nM
MIC [3]: > 50 µg/mL
IC50 [4]: 307 nM
MIC [5]: 25 µg/mL (≈ 41.3 µM)
MIC [6]: 25 µg/mL (≈ 41.3 µM)
MIC [7]: 12.5 µg/mL (≈ 20.7 µM)
MIC [8]: 12.5 µg/mL (≈ 20.7 µM)
MIC [9]: 25 µg/mL (≈ 41.3 µM)
selectivity ratio [10]: 29.9
MIC [11]: 12.5 µg/mL (≈ 20.7 µM)
MIC [12]: 12.5 µg/mL (≈ 20.7 µM)
MIC [13]: 25 µg/mL (≈ 41.3 µM)

COc1ccc(Oc2ccccc2N/C(=N/c2cccc(Cl)c2)NCCCCNc2ccnc3cc(Cl)ccc23)cc1
MIC [1]: > 50 µg/mL
IC50 [2]: > 1000 nM
MIC [3]: > 50 µg/mL
IC50 [4]: 37.6 nM
MIC [5]: 50 µg/mL (≈ 83.3 µM)
MIC [6]: 50 µg/mL (≈ 83.3 µM)
MIC [7]: 12.5 µg/mL (≈ 20.8 µM)
MIC [8]: 50 µg/mL (≈ 83.3 µM)
MIC [9]: 12.5 µg/mL (≈ 20.8 µM)
selectivity ratio [10]: 176
MIC [11]: 12.5 µg/mL (≈ 20.8 µM)
MIC [12]: 3.12 µg/mL (≈ 5.2 µM)
MIC [13]: 12.5 µg/mL (≈ 20.8 µM)

Clc1ccc(/N=C(\NCCNc2ccnc3cc(Cl)ccc23)Nc2ccccc2Oc2cc(Cl)ccc2Cl)cc1
MIC [1]: > 50 µg/mL
IC50 [2]: > 800 nM
MIC [3]: > 50 µg/mL
IC50 [4]: 58.1 nM
MIC [5]: > 50 µg/mL
MIC [6]: > 50 µg/mL
MIC [7]: 25 µg/mL (≈ 40.9 µM)
MIC [8]: > 50 µg/mL
MIC [9]: 25 µg/mL (≈ 40.9 µM)
selectivity ratio [10]: 16.5
MIC [11]: 12.5 µg/mL (≈ 20.4 µM)
MIC [12]: 6.25 µg/mL (≈ 10.2 µM)
MIC [13]: 50 µg/mL (≈ 81.8 µM)

COC(=O)/C(C)=C/c1ccc(Oc2ccc(N/C(=N/c3ccccc3)NCCCCNc3ccnc4cc(Cl)ccc34)cc2)cc1
MIC [1]: > 50 µg/mL
IC50 [2]: 76.7 nM
MIC [3]: > 50 µg/mL
IC50 [4]: 94.4 nM
MIC [5]: 50 µg/mL (≈ 78.8 µM)
MIC [6]: 25 µg/mL (≈ 39.4 µM)
MIC [7]: 25 µg/mL (≈ 39.4 µM)
MIC [8]: 25 µg/mL (≈ 39.4 µM)
MIC [9]: 25 µg/mL (≈ 39.4 µM)
selectivity ratio [10]: 91.8
MIC [11]: 25 µg/mL (≈ 39.4 µM)
MIC [12]: 50 µg/mL (≈ 78.8 µM)
MIC [13]: 25 µg/mL (≈ 39.4 µM)

COC(=O)/C(C)=C/c1ccc(Oc2ccccc2N/C(=N/c2ccccc2)NCCCCNc2ccnc3cc(Cl)ccc23)cc1
MIC [1]: > 50 µg/mL
IC50 [2]: 141 nM
MIC [3]: > 50 µg/mL
IC50 [4]: 287 nM
MIC [5]: > 50 µg/mL
MIC [6]: > 50 µg/mL
MIC [7]: > 50 µg/mL
MIC [8]: > 50 µg/mL
MIC [9]: > 50 µg/mL
selectivity ratio [10]: 78
MIC [11]: > 50 µg/mL
MIC [12]: > 50 µg/mL
MIC [13]: > 50 µg/mL
